Measurements published in PubChem BioAssay (NCI).
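Cultured in 96-well plates, cells were exposed to test compound for 48 hours across five concentrations. At the TGI there is no net growth.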

Key:
Assay in all cases: growth of human tumour cells (NCI), 48 h
SR leukemia = test system: SR leukemia
ACHN renal = test system: ACHN renal
HT29 colon = test system: HT29 colon
MDA-N = test system: MDA-N
MALME-3M melanoma = test system: MALME-3M melanoma
UACC-257 melanoma = test system: UACC-257 melanoma
OVCAR-3 ovarian = test system: OVCAR-3 ovarian
COLO 205 colon = test system: COLO 205 colon
MDA-MB-231 breast = test system: MDA-MB-231 breast
CAKI-1 renal = test system: CAKI-1 renal
SF-295 CNS = test system: SF-295 CNS
U251 CNS = test system: U251 CNS
HOP-92 NSCLC = test system: HOP-92 NSCLC
IGROV1 ovarian = test system: IGROV1 ovarian
T-47D breast = test system: T-47D breast
CCRF-CEM leukemia = test system: CCRF-CEM leukemia
LOX IMVI melanoma = test system: LOX IMVI melanoma
MCF7 breast = test system: MCF7 breast
NCI-H522 lung = test system: NCI-H522 lung
SN12C renal = test system: SN12C renal
NCI-H226 lung = test system: NCI-H226 lung
A549 NSCLC = test system: A549 NSCLC
KM12 colon = test system: KM12 colon
A498 renal = test system: A498 renal
MOLT-4 leukemia = test system: MOLT-4 leukemia
OVCAR-5 ovarian = test system: OVCAR-5 ovarian
HCT-116 colon = test system: HCT-116 colon
786-0 renal = test system: 786-0 renal
TK-10 renal = test system: TK-10 renal
OVCAR-8 ovarian = test system: OVCAR-8 ovarian
UACC-62 melanoma = test system: UACC-62 melanoma
SNB-19 CNS = test system: SNB-19 CNS
SF-539 CNS = test system: SF-539 CNS
EKVX NSCLC = test system: EKVX NSCLC
PC-3 prostate = test system: PC-3 prostate
SNB-75 CNS = test system: SNB-75 CNS
SW-620 colon = test system: SW-620 colon
NCI-H23 lung = test system: NCI-H23 lung
M14 melanoma = test system: M14 melanoma
UO-31 renal = test system: UO-31 renal
HCT-15 colon = test system: HCT-15 colon
K-562 leukemia = test system: K-562 leukemia
SK-MEL-2 melanoma = test system: SK-MEL-2 melanoma
SK-OV-3 ovarian = test system: SK-OV-3 ovarian
HS 578T breast = test system: HS 578T breast
MDA-MB-435 = test system: MDA-MB-435
HCC-2998 colon = test system: HCC-2998 colon
OVCAR-4 ovarian = test system: OVCAR-4 ovarian
BT-549 breast = test system: BT-549 breast
NCI-H460 lung = test system: NCI-H460 lung
SK-MEL-28 melanoma = test system: SK-MEL-28 melanoma
RPMI-8226 leukemia = test system: RPMI-8226 leukemia
SK-MEL-5 melanoma = test system: SK-MEL-5 melanoma
SF-268 CNS = test system: SF-268 CNS
DU-145 prostate = test system: DU-145 prostate
HOP-62 NSCLC = test system: HOP-62 NSCLC
HL-60(TB) leukemia = test system: HL-60(TB) leukemia
RXF 393 renal = test system: RXF 393 renal

Cc1cccc(/C=N/NC(=S)N(C)CCc2ccccn2)n1
TGI (SR leukemia): > 100 µM
TGI (ACHN renal): 1.15 µM
TGI (HT29 colon): > 100 µM
TGI (MDA-N): > 100 µM
TGI (MALME-3M melanoma): > 54 µM
TGI (UACC-257 melanoma): 45.6 µM
TGI (OVCAR-3 ovarian): > 100 µM
TGI (COLO 205 colon): > 100 µM
TGI (MDA-MB-231 breast): > 100 µM
TGI (CAKI-1 renal): 32.7 µM
TGI (SF-295 CNS): > 100 µM
TGI (U251 CNS): > 100 µM
TGI (HOP-92 NSCLC): > 83.9 µM
TGI (IGROV1 ovarian): 24.6 µM
TGI (T-47D breast): > 100 µM
TGI (CCRF-CEM leukemia): 0.0974 µM
TGI (LOX IMVI melanoma): > 100 µM
TGI (MCF7 breast): > 100 µM
TGI (NCI-H522 lung): > 100 µM
TGI (SN12C renal): > 100 µM
TGI (NCI-H226 lung): 19.6 µM
TGI (A549 NSCLC): > 100 µM
TGI (KM12 colon): > 100 µM
TGI (A498 renal): 1.03 µM
TGI (MOLT-4 leukemia): > 100 µM
TGI (OVCAR-5 ovarian): > 100 µM
TGI (HCT-116 colon): > 100 µM
TGI (786-0 renal): > 100 µM
TGI (TK-10 renal): > 100 µM
TGI (OVCAR-8 ovarian): > 59 µM
TGI (UACC-62 melanoma): 1.02 µM
TGI (SNB-19 CNS): > 100 µM
TGI (SF-539 CNS): 6.8 µM
TGI (EKVX NSCLC): > 100 µM
TGI (PC-3 prostate): > 100 µM
TGI (SNB-75 CNS): 21.9 µM
TGI (SW-620 colon): > 100 µM
TGI (NCI-H23 lung): > 100 µM
TGI (M14 melanoma): 2.38 µM
TGI (UO-31 renal): 2.36 µM
TGI (HCT-15 colon): > 100 µM
TGI (K-562 leukemia): > 45.6 µM
TGI (SK-MEL-2 melanoma): > 100 µM
TGI (SK-OV-3 ovarian): > 100 µM
TGI (HS 578T breast): > 100 µM
TGI (MDA-MB-435): > 100 µM
TGI (HCC-2998 colon): > 100 µM
TGI (OVCAR-4 ovarian): > 100 µM
TGI (BT-549 breast): > 100 µM
TGI (NCI-H460 lung): > 52.5 µM
TGI (SK-MEL-28 melanoma): > 100 µM
TGI (RPMI-8226 leukemia): 0.388 µM
TGI (SK-MEL-5 melanoma): 9.4 µM
TGI (SF-268 CNS): > 100 µM

CCOC(=O)C(NC(=O)c1cccc(Cl)c1)(N1CCN(c2cc3c(cc2F)c(=O)c(C(=O)O)cn3C2CC2)CC1)C(F)(F)F (stereo not given)
TGI (SR leukemia): 25.8 µM
TGI (ACHN renal): 31 µM
TGI (DU-145 prostate): 70.5 µM
TGI (MDA-N): 29.4 µM
TGI (MALME-3M melanoma): 32.2 µM
TGI (OVCAR-3 ovarian): 29.5 µM
TGI (COLO 205 colon): 30.2 µM
TGI (MDA-MB-231 breast): 34.2 µM
TGI (HOP-62 NSCLC): 50 µM
TGI (CAKI-1 renal): 36.2 µM
TGI (SF-295 CNS): 53.5 µM
TGI (U251 CNS): 18.3 µM
TGI (HOP-92 NSCLC): 34.6 µM
TGI (HL-60(TB) leukemia): 6.64 µM
TGI (IGROV1 ovarian): 41.5 µM
TGI (RXF 393 renal): 34.4 µM
TGI (T-47D breast): 48.9 µM
TGI (CCRF-CEM leukemia): 9.78 µM
TGI (SN12C renal): 93.9 µM
TGI (NCI-H226 lung): 40.3 µM
TGI (A549 NSCLC): 50.5 µM
TGI (KM12 colon): 23.9 µM
TGI (A498 renal): 55.7 µM
TGI (MOLT-4 leukemia): 15.9 µM
TGI (OVCAR-5 ovarian): 31.1 µM
TGI (HCT-116 colon): 25.5 µM
TGI (786-0 renal): 28.3 µM
TGI (OVCAR-8 ovarian): 60.7 µM
TGI (UACC-62 melanoma): 42.2 µM
TGI (SNB-19 CNS): 84.9 µM
TGI (SF-539 CNS): 31.3 µM
TGI (EKVX NSCLC): 55.2 µM
TGI (PC-3 prostate): 34.6 µM
TGI (SNB-75 CNS): 50.7 µM
TGI (SW-620 colon): 27.2 µM
TGI (NCI-H23 lung): 37.1 µM
TGI (M14 melanoma): 33.2 µM
TGI (UO-31 renal): 47.3 µM
TGI (K-562 leukemia): 20.1 µM
TGI (SK-MEL-2 melanoma): 29.8 µM
TGI (SK-OV-3 ovarian): 66.5 µM
TGI (HS 578T breast): 58 µM
TGI (MDA-MB-435): 28.8 µM
TGI (HCC-2998 colon): 34.8 µM
TGI (OVCAR-4 ovarian): 39 µM
TGI (BT-549 breast): 38.4 µM
TGI (NCI-H460 lung): 42.9 µM
TGI (SK-MEL-28 melanoma): 32.4 µM
TGI (RPMI-8226 leukemia): 23.6 µM
TGI (SK-MEL-5 melanoma): 25.5 µM
TGI (SF-268 CNS): 29.1 µM
